The source of these data is US20070082883A1, “HIV protease inhibitors” (THE BOARD OF TRUSTEES OF THE UNIVERSITY OF ILLINOIS, priority 2002, published 2007).

The assay deals with T1, HIV-1 protease (Human immunodeficiency virus type 1 group M subtype B, UniProt P04585).
T1 construct: made in house; host or cells: E. coli BL21 (dE3)pLysS, pET30a vector
Nature of the assay: HIV-1 Protease Inhibition Assay. It counts as biochemical. Summed up: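 Recombinant HIV-1 protease expressed in E. coli BL21(DE3)pLysS, refolded from urea and purified. Activity followed with fluorogenic substrate 2-aminobenzoyl-Thr-Ile-Nle-Phe(pNO2)-Gln-Arg-NH2 under So<<Km.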

The mark [1] stands for this setting: cells marked (pM) in a column headed nM.

Take `O=C(N[C@@H](Cc1ccccc1)[C@H](O)CN1CCCCCCCCCOc2ccccc2COC1=O)O[C@@H]1CC2CCO[C@@H]2C1` (stereo partly drawn) [Compound 228]: under “fluorogenic substrate assay”, the IC50 (usually the point on the concentration scale where inhibition reaches its midpoint) was 2.2e+06 pM and the affinity corresponds to a Ki of 638 nM.
The matching figures for `C=CCCCCN(C[C@@H](O)[C@H](Cc1ccccc1)NC(=O)O[C@H]1CO[C@H]2OCCC21)S(=O)(=O)c1cccc(OCC=C)c1` (stereo partly drawn) [Compound 229]: 9100 pM and 2.1 nM.
On to `O=C(N[C@@H](Cc1ccccc1)[C@H](O)CN1CCCCCCCOc2cccc(c2)S1(=O)=O)O[C@H]1CO[C@H]2OCCC21` (stereo partly drawn) [Compound 231], for which, for the setting “fluorogenic substrate assay”, the IC50 is 8600 pM and affinity was put at a Ki of 2.7 nM.
The like results for `C=CCCCCN(C[C@@H](O)[C@H](Cc1ccccc1)NC(=O)O[C@H]1CO[C@H]2OCCC21)S(=O)(=O)c1cccc(OCCC=C)c1` (stereo partly drawn) [Compound 232] were, in that order, 5400 pM and 1.7 nM.
The like results for `O=C(N[C@@H](Cc1ccccc1)[C@H](O)CN1CCCC/C=C\CCOc2cccc(c2)S1(=O)=O)O[C@H]1CO[C@H]2OCCC21` (stereo partly drawn) [Compound 233] were, in that order, 8700 pM and 2.7 nM.
The like results for `O=C(N[C@@H](Cc1ccccc1)[C@H](O)CN1CCCCCCCCOc2cccc(c2)S1(=O)=O)O[C@H]1CO[C@H]2OCCC21` (stereo partly drawn) [Compound 234] were, in that order, 7300 pM and 2.3 nM.
For `O=C(N[C@@H](Cc1ccccc1)[C@H](O)CN1CCCC/C=C\CCCCOc2cccc(c2)S1(=O)=O)O[C@@H]1CC2CCO[C@@H]2C1` (stereo partly drawn) [Compound 235], for the setting “fluorogenic substrate assay”, the midpoint of inhibition, the IC50, lay at 9300 pM and the affinity corresponds to a Ki of 2.9 nM.
For the compound `O=C(N[C@@H](Cc1ccccc1)[C@H](O)CN1CCCCCCCCCCOc2cccc(c2)S1(=O)=O)O[C@@H]1CC2CCO[C@@H]2C1` (stereo partly drawn) [Compound 236], where the note is “fluorogenic substrate assay”, half-maximal inhibition (IC50) was put at 11000 pM and the Ki (in general, a measure of affinity in units of concentration, obtained from inhibition or displacement) turned out to be 3.4 nM.
The matching figures for `C=CCCCCN(C[C@@H](O)[C@H](Cc1ccccc1)NC(=O)O[C@@H]1CC2CCO[C@@H]2C1)S(=O)(=O)c1cccc(C(O)CC=C)c1` (stereo partly drawn) [Compound 237]: 10000 pM and 3.1 nM.
On to `O=C(N[C@@H](Cc1ccccc1)[C@H](O)CN1CCCCCCCC(O)c2cccc(c2)S1(=O)=O)O[C@@H]1CC2CCO[C@@H]2C1` (stereo partly drawn) [Compound 238], for which, under “fluorogenic substrate assay”, the IC50 came to 4000 pM and the Ki came out at 1.2 nM.
The matching figures for `O=C(N[C@@H](Cc1ccccc1)[C@H](O)CN1CCCC/C=C/CCCC(O)c2cccc(c2)S1(=O)=O)OCc1cccnc1` (stereo partly drawn) [Compound 239]: 34000 pM and 11 nM.
In turn, `CC(C)CN(C[C@@H](O)[C@H](Cc1ccccc1)NC(=O)O[C@@H]1CCOC1)[C@H]1CCNC1=O` [Compound 248] showed a Ki (fluorogenic substrate assay) of 730 nM. This counts as sub-micromolar.
Same read-out and setting: under `CC(C)CN(C[C@@H](O)[C@H](Cc1ccccc1)NC(=O)O[C@H]1CO[C@H]2OCC[C@H]21)[C@H]1CCNC1=O` [Compound 249] stands 37 nM; under `CC(C)CN(C[C@@H](O)[C@H](Cc1ccccc1)NC(=O)O[C@H]1CO[C@H]2OCC[C@H]21)[C@@H]1C(=O)Nc2ccccc21` [Compound 250], 1 nM.
`COc1ccc(S(=O)(=O)N(CC(C)C)C[C@@H](O)C(Cc2ccccc2)NC(=O)O[C@H]2CO[C@@H]3OCCC[C@@H]32)cc1` (stereo partly drawn) [Compound 253]: under “fluorogenic substrate assay”, the IC50 is 1000 pM.
On the same count and under the same terms, the figure for `CC(C)CN(C[C@H](O)C(Cc1ccccc1)NC(=O)O[C@@H]1C[C@@H]2CCO[C@@H]2C1)S(=O)(=O)c1ccc(CO)cc1` (stereo partly drawn) [Compound 254] is 1000 pM; for `CC(C)CN(C[C@@H](O)[C@H](Cc1ccccc1)NC(=O)O[C@@H]1CC2CCO[C@@H]2C1)S(=O)(=O)c1ccc(/C=N/O)cc1` (stereo partly drawn) [Compound 256] it is 1700 pM; for `CC(C)CN(C[C@@H](O)[C@H](Cc1ccccc1)NC(=O)O[C@@H]1CC2CCO[C@@H]2C1)S(=O)(=O)c1cccc(/C=N/O)c1` (stereo partly drawn) [Compound 257] it is 2900 pM.
The same measure, in the same setting: the figure for `CC(C)CN(C[C@@H](O)[C@H](Cc1ccccc1)NC(=O)O[C@@H]1CC2CCO[C@@H]2C1)S(=O)(=O)c1ccc(O)c(O)c1` (stereo partly drawn) [Compound 258] is 3900 pM; for `Cc1cc(S(=O)(=O)N(CC(C)C)C[C@@H](O)[C@H](Cc2ccccc2)NC(=O)O[C@@H]2CC3CCO[C@@H]3C2)ccc1CO` (stereo partly drawn) [Compound 259] it is 2800 pM.
In turn, `CC(C)CN(C[C@@H](O)[C@H](Cc1ccccc1)NC(=O)O[C@@H]1CC2CCO[C@@H]2C1)S(=O)(=O)c1ccc(N)cc1` (stereo partly drawn) [Compound 261] registered an IC50 (fluorogenic substrate assay) of 2200 pM.
Take `CC(C)CN(C[C@@H](O)[C@H](Cc1ccccc1)NC(=O)OC1CO[C@H]2OCC[C@@H]12)C1CC(C)(C)NC1=O` (stereo partly drawn) [Compound 269]: half-maximal inhibition (fluorogenic substrate assay) (IC50) required 3400 pM.
The compound `CC(C)CN(C[C@@H](O)[C@H](Cc1ccccc1)NC(=O)OC1CO[C@H]2OCC[C@@H]12)C1CC2(CCCC2)NC1=O` (stereo partly drawn) [Compound 270] had an IC50 (fluorogenic substrate assay) of 6400 pM. This IC50 lies about 1.9-fold higher than the previous one.
`COc1ccc(S(=O)(=O)N(C[C@H]2CCC(=O)N2)C[C@@H](O)[C@H](Cc2ccccc2)NC(=O)OC(C)(C)C)cc1` [Compound 271, ((1S)-Benzyl-(2R)-hydroxy-3-[(4-methoxybenzene-sulfonyl)-(5-oxopyrrolidin-(2R)-ylmethyl)amino]-propyl)carbamic acid tert-butyl ester]: under “fluorogenic substrate assay”, the IC50 amounted to 3000 pM.
Same read-out and setting: the figure for `COc1ccc(S(=O)(=O)N(C[C@@H]2CCC(=O)N2)C[C@@H](O)[C@H](Cc2ccccc2)NC(=O)OC(C)(C)C)cc1` [Compound 272] is 3420 pM.
`COc1ccc(S(=O)(=O)N(C[C@H]2CCC(=O)N2)C[C@@H](O)[C@H](Cc2ccccc2)NC(=O)OC2CO[C@H]3OCC[C@@H]23)cc1` (stereo partly drawn) [Compound 273] yielded an IC50 under setting [1] of 17 pM.
`O=C1CC[C@H](CN(C[C@@H](O)[C@H](Cc2ccccc2)NC(=O)OC2CO[C@H]3OCC[C@@H]23)S(=O)(=O)c2ccc([N+](=O)[O-])cc2)N1` (stereo partly drawn) [Compound 274] yielded an IC50 (fluorogenic substrate assay) of 100 pM. That is a sub-nanomolar value.
The same measure, in the same setting: under `O=C1CC[C@@H](CN(C[C@@H](O)[C@H](Cc2ccccc2)NC(=O)OC2CO[C@H]3OCC[C@@H]23)S(=O)(=O)c2ccc([N+](=O)[O-])cc2)N1` (stereo partly drawn) [Compound 275] stands 370 pM.
The compound `Nc1ccc(S(=O)(=O)N(C[C@H]2CCC(=O)N2)C[C@@H](O)[C@H](Cc2ccccc2)NC(=O)OC2CO[C@H]3OCC[C@@H]23)cc1` (stereo partly drawn) [Compound 276] came in with an IC50 under setting [1] of 20 pM.
Compound `COc1ccc(S(=O)(=O)N(C[C@H]2CCC(=O)N2)C[C@@H](O)[C@H](Cc2ccccc2)NC(=O)OC2CC[C@H]3OCC[C@@H]23)cc1` (stereo partly drawn) [Compound 277] came in with an IC50 (fluorogenic substrate assay) of 100 pM.
Still for that read-out and setting: under `COc1ccc(S(=O)(=O)N(C[C@@H]2CCC(=O)N2)C[C@@H](O)[C@H](Cc2ccccc2)NC(=O)OC2CC[C@H]3OCC[C@@H]23)cc1` (stereo partly drawn) [Compound 278] stands 160 pM.
The same measure, in the same setting: under `O=C1CC[C@H](CN(C[C@@H](O)[C@H](Cc2ccccc2)NC(=O)OC2CC[C@H]3OCC[C@@H]23)S(=O)(=O)c2ccc([N+](=O)[O-])cc2)N1` (stereo partly drawn) [Compound 279] stands 340 pM.
Compound `Nc1ccc(S(=O)(=O)N(C[C@H]2CCC(=O)N2)C[C@@H](O)[C@H](Cc2ccccc2)NC(=O)OC2CC[C@H]3OCC[C@@H]23)cc1` (stereo partly drawn) [Compound 281] gave an IC50 under setting [1] of 26 pM.
On the same count and under the same terms, the figure for `COc1ccc(S(=O)(=O)N(C[C@@H]2CCC(=O)N2)C[C@@H](O)[C@H](Cc2ccccc2)NC(=O)OC2CO[C@H]3OCC[C@@H]23)cc1` (stereo partly drawn) [Compound 283] is 14 pM.
